This note sets out measurements from ChEMBL document CHEMBL1144201, “Design and synthesis of a series of meta aniline-based LFA-1 ICAM inhibitors” (Bioorg Med Chem Lett, 2008).

A short description of data set [1]: in vivo. The note with it: rat, po, 1 mg/kg.
Data set [2] can be described thus: in vivo. The following applies: rat, 1 mg/kg.
The nature of data set [3]: in vivo. The following applies: rat, 1 mg/kg. This is another data set of the same source.

By bioavailability is commonly meant dose-corrected exposure relative to a reference, in per cent. The low end stands for poor availability, the high end for good availability. The half-life is the time in which the quantity being followed falls by half. Higher therefore signals slow loss. The clearance is the volume of plasma or blood freed of the substance per unit of time. A lower clearance goes with inefficient removal.

`CC(C)N1CCC(Nc2cccc(Sc3ccc(/C=C/C(=O)N4CCOCC4)c(C(F)(F)F)c3C(F)(F)F)c2)CC1`: the bioavailability in data set [1] worked out at 32%. In data set [2], this compound showed a half-life of 7 h.

In data set [1], `Nc1cccc(Sc2ccc(/C=C/C(=O)N3CCOCC3)c(C(F)(F)F)c2C(F)(F)F)c1` registered a bioavailability of 27%. This compound had a half-life in data set [2] of 4.5 h.

As for `O=C(/C=C/c1ccc(Sc2cccc(N[C@H]3CC[C@@H](C(=O)O)CC3)c2)c(C(F)(F)F)c1C(F)(F)F)N1CCOCC1`, the bioavailability in data set [1] is 13%. The half-life in data set [2] was 1.8 h. This compound returned a clearance in data set [3] of 8.3 mL/min/kg.
